Assay results reported in article PMC9769502 (Microbiology Spectrum, 2022).
Like-named read-outs stand apart in the source and are kept apart here. No end group written: not given here.

Experiments:
[1] = tested on: Leishmania donovani intracellular amastigotes; settings: 50 μM miltefosine control; cited from earlier work
Protocol: Transgenic L. donovani promastigotes constitutively expressing mCherry and THP-1 macrophages were cultured as described above. Metacyclic promastigotes were isolated using a Ficoll-400 density gradient as previously described ([70]). Differentiated macrophages were exposed to parasites for 4 h at a multiplicity of infection (MOI) of 10 parasites:1 macrophage. After 4 h, the macrophages were washed thoroughly with 1× phosphate-buffered saline (PBS) (pH 7.4) and incubated overnight at 37°C with 5% CO2. Macrophages were transferred to 96-well plates at 5 × 10^6 cells/mL and exposed to antimicrobi ...

[2] = tested on: Leishmania donovani axenic amastigotes; settings: 50 μM miltefosine control; cited from earlier work
Protocol: (§1) Axenic amastigotes were differentiated as described previously ([69]); briefly, transgenic L. donovani promastigotes expressing mCherry were differentiated by pH and temperature shifts. Amastigotes were seeded into 96-well plates at 5 × 10^6 cells/mL and incubated for 48 h in the presence of decreasing drug concentrations, starting at 20 μM, along with the appropriate solvent controls. Fluorescence was monitored (587-nm excitation/610-nm emission) over 48 h using a FlexStation 3 benchtop multimode reader (Molecular Devices). At 50 μM miltefosine, 99% parasite inhibition is observed. Thus, chan ...

THP-1 macrophages = assay: Cytotoxicity against THP-1 macrophages (CellTiter-Blue); type: cell-based, human
Protocol: THP-1 (human acute monocytic leukemia-derived) host macrophages were cultured in RPMI 1640 supplemented with 10% FCS and a penicillin-streptomycin antibiotic solution (10,000 U/mL penicillin, 10,000 μg/mL streptomycin) at 37°C with 5% CO2. THP-1 cells were incubated with 0.25 μM phorbol 12-myristate […] (PMA) for 48 h to differentiate into mature macrophages. Differentiated macrophages were seeded into 96-well plates at 5 × 10^6 cells/mL and incubated for 48 h in the presence of 20 μM antimicrobial peptides along with the appropriate solvent controls. Cell viability assays were conducted using CellTiter-Blue (Promega), based on resazurin reduction. After the 48-h incubation period, CellTiter-Blue reagent was added to cells for 4 h at 37°C, and fluorescence was measured (555-nm excitation/580-nm emission) using a FlexStation 3 benchtop multimode reader (Molecular Devices). Each assay was performed in triplicate. The CC50 values were calculated by nonlinear regression analysis using GraphPad Prism 9.0 for Windows.

[3] = tested on: Leishmania donovani axenic amastigotes
Protocol: We utilized a previously developed high-throughput screening assay using transgenic axenic amastigotes expressing a red fluorescent protein, mCherry. Changes in mCherry fluorescence were normalized to 50 μM miltefosine in order to quantify parasite inhibition ([52]). In total, 5 scaffold 25-mer peptides and 475 synthetic 25-mer peptide variants were screened (Fig. 1). […] The assay was repeated, and the average percent parasite killing was determined.
Axenic amastigotes were differentiated as described previously ([69]).
as §1, with “[…] Thus, changes in mCherry fluorescence were normalized to the” for “At”, “miltefosine control in order to quantify” for “miltefosine, 99%”, “inhibition. Each assay was performed in triplicate. The IC50 values were calculated by nonlinear regression analysis using GraphPad Prism 9.0 for Windows.” for “inhibition is observed. Thus, chan ...”

[4] = tested on: intracellular amastigotes; settings: previously shown; cited from earlier work
Source text: As Leishmania spp. are obligate intracellular parasites, intracellular amastigote IC50 value determination is necessary to understand the clinical relevance of the 10 antileishmanial peptide drug candidates.

[5] = tested on: Leishmania pifanoi axenic amastigotes; settings: full-length enterocin AS-48; read-out: IC50 against Leishmania pifanoi axenic amastigotes; cited from earlier work
Source text: Enterocin AS-48, a class I bacteriocin, has been well characterized and is currently being investigated for use as an antimicrobial drug against a large variety of infectious disease agents ([45]). Enterocin AS-48 is a ribosomally produced, circularized bacteriocin encoded by Enterococcus faecalis subsp. liquefaciens strain S-48, which undergoes head-to-tail macrocyclization as a posttranslational modification ([46]). Efforts to engineer synthetic enterocin AS-48 have been made in order to improve mass production and bioactivity. Previously, segments of the bacteriocin have undergone α-ketoaci ...

axenic amastigotes = settings: previous data used to set the 20 μM screening concentration; read-out: IC50 of enterocin AS-48 (previous data); cited from earlier work
Protocol: We utilized a previously developed high-throughput screening assay using transgenic axenic amastigotes expressing a red fluorescent protein, mCherry. Changes in mCherry fluorescence were normalized to 50 μM miltefosine in order to quantify parasite inhibition ([52]). In total, 5 scaffold 25-mer peptides and 475 synthetic 25-mer peptide variants were screened (Fig. 1). […] The assa ... || In this work, we determined the efficacy and cytotoxicity of 480 synthetic, minimal AS-48 bacteriocin homolog peptide variants against L. donovani using phenotypic in vitro fluorometric assays. […] This study illustrates the successful use of rational design using the minimal domain of naturally occurring bacteriocin scaffolds to increase leishmanicidal activity.

[6] = read-out: Axenic amastigotes Mean IC50 ± SD, L. donovani mCherry axenic amastigotes, 48 h, fluorescence normalized to 50 μM miltefosine, highest concentration 20 μM, mean of three replicates
[7] = read-out: Axenic amastigotes Mean IC50 ± SD

Molecule | THP-1 macrophage CC50 (THP-1 macrophages) | IC50 [3, 6] [µM] | other results
CCCCCCCCCCCCCCCCOP(=O)([O-])OCC[N+](C)(C)C [miltefosine] | – | – | Intracellular parasite inhibition [1]: 99%; Parasite inhibition (axenic amastigotes) [2]: 99%
AGRQWLTLYLKEELRKFGKKARIAW [Syn-xiamencin-53] | < 20 µM | 14.8 | –
AGRQWLTLYLKEELRKRGKIAFKAW [Syn-xiamencin-54] | < 20 µM | 7.79 | –
AGRQWLTLYLKEELRKRGKKAFIAW [Syn-xiamencin-49] | < 20 µM | – | IC50 [3, 7]: 9.22 µM
AGSERIAKELKKYIKKGKKWIRAAW [Syn-enterocin-64] | < 20 µM | 0.42 | –
AGSERIAKELKKYIKKWKKVIRAAW [Syn-enterocin-48] | < 20 µM | 1.21 | –
AGTEKIFNRLKKWINEGKKIAKRAW [Syn-larvacin-32] | < 20 µM | 0.23 | –
AGTEKIFQRLKKTIQEGKKIAKRAW [Syn-larvacin-7] | below 20 μM | 5.61 | –
AGTEKIFQRLKKTIQEWKKIAKRAW [Syn-larvacin-47] | < 20 µM | 1.1 | –
AGTEKIFQRLKKWIQEGKKIAKRAW [Syn-larvacin-31] | < 20 µM | – | IC50 [3, 7]: 3.8 µM
AGWQRLTLYLKEELRKRGKKAFIAW [Syn-xiamencin-50] | < 20 µM | – | IC50 [3, 7]: 3.74 µM
AWANRLTKELLEYLRKFGKIARKAW [Syn-xiamencin-32] | < 20 µM | 0.89 | –
AWAQRLTKELLEYLRKFGKIARKAW [Syn-xiamencin-31] | < 20 µM | 4.82 | –
AWKETIFQRLKKKIQEKGKRATIAW [Syn-larvacin 35] | > 20 µM | – | THP-1 macrophage CC50 (THP-1 macrophages; 48 h): >20 µM; IC50 ([3]; 48 h): 0.63 ± 0.14 µM
AWKETIRKYLKNEIKKKGRKAVIAW [Syn-safencin-22] | < 20 µM | 1.18 | –
AWKETIRQFLKKTIQEKGKRAKIAW [Syn-larvacin-37] | < 20 µM | 0.29 | –

Molecule | THP-1 macrophage CC50 (THP-1 macrophages) | IC50 [3, 6] [µM] | other results
AWKETIRQYLKNEIKKKWRKAVIAW [Syn-safencin-89] | < 20 µM | 1.05 | –
AWKETIRQYLKNKIKKKGRKAVIAW [Syn-safencin-19] | < 20 µM | 0.38 | –
AWKETIRQYLKNKIKKKWRKAVIAW [Syn-safencin-91] | < 20 µM | 0.6 | –
AWKKTIRQYLKNEIKKKGRKAVIAW [Syn-safencin-18] | < 20 µM | 7.96 | –
AWKKTIRQYLKNEIKKKWRKAVIAW [Syn-safencin-90] | < 20 µM | 2.6 | –
AWKKTIRQYLKNKIKKKWRKAVIAW [Syn-safencin-92] | < 20 µM | 0.9 | –
AWTEKIFNRLKKTINEGKKIAKRAW [Syn-larvacin-40] | < 20 µM | 8.35 | –
AWTEKIFQRLKKTIQEGKKIAKRAW [Syn-larvacin-39] | < 20 µM | 1.43 | –
WGKETIFQRLKKKIQEKGKRATIAW [Syn-larvacin-11] | below 20 μM | 0.66 | –
WGKETIRKYLKNEIKKKGRKAVIAW [Syn-safencin-14] | below 20 μM | 0.67 | –
WGKETIRQFLKKKIQEKGKIATRAW [Syn-larvacin 14] | > 20 µM | – | THP-1 macrophage CC50 (THP-1 macrophages; 48 h): >20 µM; IC50 ([3]; 48 h): 3.89 ± 0.1 µM
WGKETIRQKLKNEIKKKGRKAVIAW [Syn-safencin-15] | below 20 μM | 1.71 | –
WGKETIRQYLKNKIKKKGRKAVIAW [Syn-safencin-11] | below 20 μM | 12.2 | –
WGKKTIRQYLKNEIKKKGRKAVIAW [Syn-safencin-10] | below 20 μM | 2.97 | –
WGTEKIRQFLKKKIQEKGKRATIAW [Syn-larvacin-10] | below 20 μM | 0.27 | –
enterocin AS-48 | – | – | Activity against intracellular amastigotes [4]: limited activity; IC50 [5]: 10.2 ± 1.2 µM; IC50 (axenic amastigotes): ~20 µM
